Data set [1] deals with T1, Renin (Homo sapiens, UniProt P00797).
T1 sequence (P00797 whole entry): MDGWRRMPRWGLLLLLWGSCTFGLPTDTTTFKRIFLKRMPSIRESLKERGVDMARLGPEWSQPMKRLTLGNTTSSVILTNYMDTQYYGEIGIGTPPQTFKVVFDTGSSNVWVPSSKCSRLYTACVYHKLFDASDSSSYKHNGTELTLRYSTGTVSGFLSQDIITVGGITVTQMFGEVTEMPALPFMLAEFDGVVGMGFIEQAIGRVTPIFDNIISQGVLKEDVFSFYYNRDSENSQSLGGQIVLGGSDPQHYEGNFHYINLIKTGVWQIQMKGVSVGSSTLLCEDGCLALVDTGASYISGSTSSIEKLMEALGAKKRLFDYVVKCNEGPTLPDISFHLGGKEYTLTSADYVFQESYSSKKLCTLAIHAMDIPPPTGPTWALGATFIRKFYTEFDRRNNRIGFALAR
The data set can be described thus: Inhibition of trypsin-activated human recombinant renin.

In data set [2] the target is T1, Renin. Nature of the data set: Inhibition of human recombinant renin assessed as decrease in plasma renin activity by competitive radioimmunoassay in presence of human plasma.
A short description of data set [3]: Clearance in rat at 2 mg/kg, iv. The data set is classed as ADME, organism-based. On the set-up: dose 2 mg/kg, route intravenous. As to conditions: in vivo.
A short description of data set [4]: (§1) AUC (0 to t) in rat at 10 mg/kg, po. Particulars: plasma. More on the design: dose 10 mg/kg, route oral. The data set is classed as ADME, organism-based, Plasma.
Data set [5] can be described thus: Cmax in rat at 10 mg/kg, po. Type of data set: ADME, organism-based. On the set-up: dose 10 mg/kg, route oral. As to conditions: in vivo.
The nature of data set [6]: (§2) Oral bioavailability in rat at 10 mg/kg. Particulars: in vivo. The data set is classed as ADME, organism-based.
The nature of data set [7]: Half life in rat at 10 mg/kg, po. The data set is classed as ADME, organism-based. More on the design: dose 10 mg/kg, route oral. As to conditions: in vivo.
Data set [8] can be described thus: Tmax in rat at 10 mg/kg, po. The data set is classed as ADME, organism-based. More on the design: dose 10 mg/kg, route oral. As to conditions: in vivo.
The nature of data set [9]: Volume of distribution at steady state in rat at 10 mg/kg, po or 2 mg/kg, iv. The data set is classed as ADME, organism-based. As to conditions: in vivo, read-out: Vdss.
The test system of data set [10] is Rattus norvegicus. The description is as §1. Particulars: in vivo. On the set-up: dose 10 mg/kg, route oral. The data set is classed as ADME, organism-based, Plasma.
Data set [11] concerns Rattus norvegicus. Described as §2. Type of data set: ADME, organism-based. As to conditions: in vivo.
A short description of data set [12]: Volume of distribution at steady state in cynomolgus monkey at 1 mg/kg, iv or 2 mg/kg, po. Type of data set: ADME, organism-based, Macaca fascicularis. As to conditions: in vivo, read-out: VDss.
Data set [13] can be described thus: Clearance in cynomolgus monkey at 1 mg/kg, iv. Type of data set: ADME, organism-based, Macaca fascicularis. More on the design: dose 1 mg/kg, route intravenous. As to conditions: in vivo.
Data set [14] can be described thus: Oral bioavailability in cynomolgus monkey at 2 mg/kg. Type of data set: ADME, organism-based, Macaca fascicularis. As to conditions: in vivo.
The nature of data set [15]: Half life in cynomolgus monkey at 2 mg/kg, po. Type of data set: ADME, organism-based, Macaca fascicularis. On the set-up: dose 2 mg/kg, route oral. Particulars: in vivo.
A short description of data set [16]: Tmax in cynomolgus monkey at 2 mg/kg, po. Type of data set: ADME, organism-based, Macaca fascicularis. More on the design: dose 2 mg/kg, route oral. Particulars: in vivo.
Data set [17] in a line: AUC (0 to 32 hrs) in cynomolgus monkey at 2 mg/kg, po. Type of data set: ADME, organism-based, Macaca fascicularis. More on the design: time < 32 hr, dose 2 mg/kg, route oral. Particulars: plasma.
A short description of data set [18]: Cmax in cynomolgus monkey at 2 mg/kg, po. More on the design: dose 2 mg/kg, route oral. Type of data set: ADME, organism-based, Macaca fascicularis. As to conditions: in vivo.

Each structure is given as a SMILES string.

As usually defined, the IC50 is the point on the concentration scale where inhibition reaches its midpoint. In the case of `CNC[C@H](CC1CCCCC1)NC(=O)N1CCC[C@@H]([C@@](O)(CCCNC(=O)N(C)C)c2cccc(Cl)c2)C1`, the IC50 on Renin [1] is 2260 nM.

As for `CCNC[C@H](CC1CCCCC1)NC(=O)N1CCC[C@@H]([C@@H](OCCNC(=O)OC)c2cccc(F)c2)C1`, the IC50 was found to be 18 nM on Renin [2] and 2.1 nM on Renin [1].

For orientation: clearance means a measure of how efficiently the substance is removed, as volume per time. As usually defined, the AUC(0-t) is the area under the concentration-time curve up to a stated or last time point. In general, Cmax refers to the peak of the concentration-time curve. Usually bioavailability stands for the share of a dose that reaches the circulation, judged against a reference dose that is usually intravenous. As usually defined, the half-life is the time needed for the level to fall by half in the phase considered. The Tmax is the time from dosing to the highest level. Turning to `CNC[C@H](CC1CCCCC1)NC(=O)N1CCC[C@@H]([C@@H](OCCNC(=O)OC)c2cccc(F)c2)C1`, the clearance in data set [3] amounted to 58 mL/min/kg. This compound registered an AUC(0-t) in data set [4] of 380 ng·h/mL. In data set [5], this compound showed a Cmax of 123 ng/mL. In addition, the half-inhibitory concentration (IC50) at Renin [2] is 1.8 nM; on Renin [1], 0.59 nM. Further, the bioavailability in data set [6] came to 22.1%. Also, the half-life in data set [7] was 12.7 h. Besides, in [8], the Tmax was 2 h. Besides, the Vd in data set [9] is 61 L/kg.

For the compound `CNC[C@H](CC1CCCCC1)NC(=O)N1CCC[C@@H]([C@@](O)(CCCNS(N)(=O)=O)c2cccc(Cl)c2)C1`, the results for the IC50 at Renin [2] and at Renin [1] were 297 nM and 46 nM, respectively.

In the case of `CCOC(=O)NCCC[C@@](O)(c1cccc(Cl)c1)[C@@H]1CCCN(C(=O)N[C@H](CNC)CC2CCCCC2)C1`, the values for the IC50 on Renin [2] and at Renin [1] were 170 nM and 14 nM, respectively.

For `CNC[C@H](CC1CCCCC1)NC(=O)N1CCC[C@@H]([C@@H](OCCNC(=O)OC)c2ccccc2)C1`, the IC50 is 2.9 nM on Renin [2] and 1.17 nM at Renin [1].

One may read the AUC as the area under the concentration-time curve, a measure of exposure. Take `CNC[C@H](CC1CCCCC1)NC(=O)N1CCC[C@@H]([C@@H](OCCNC(=O)OC)c2cc(F)cc(Cl)c2)C1`: in the data set with Rattus norvegicus [10], the AUC was determined as 166 ng·h/mL. Moreover, the Cmax in data set [5] was 54 ng/mL. Further, the IC50 at Renin [2] amounted to 1.5 nM; on Renin [1], 0.52 nM. For the same compound, in the data set on Rattus norvegicus [11], the F is 13.1%. The compound further gave a half-life in data set [7] of 7.2 h. Besides, the Tmax in data set [8] was 4 h. For the same compound, the Vd in data set [9] came out at 38 L/kg.

In the case of `CNC[C@H](CC1CCCCC1)NC(=O)N1CCC[C@@H]([C@@H](OCCNC(=O)OC)c2cccc(F)c2F)C1`, the IC50 was 6.2 nM at Renin [2] and 1.7 nM on Renin [1].

`CNC[C@H](CC1CCCCC1)NC(=O)N1CCC[C@@H]([C@@](O)(CCCNC(C)=O)c2cccc(Cl)c2)C1`: in data set [3], the clearance was found to be 23 mL/min/kg. Moreover, the IC50 at Renin [2] turned out to be 16 nM. In addition, in [9], the Vd was 117 L/kg.

For `CCNC[C@H](CC1CCCCC1)NC(=O)N1CCC[C@@H]([C@@H](OCCNC(=O)OC)c2cccc(Cl)c2)C1`, the IC50 on Renin [2] was found to be 7.7 nM; at Renin [1], 0.87 nM.

Turning to `CNC[C@H](CC1CCCCC1)NC(=O)N1CCC[C@@H]([C@@](O)(CCCCOC)c2cccc(Cl)c2)C1`, the Vd in [12] was determined as 6.1 L/kg. Further, in data set [4], the AUC(0-t) is 472 ng·h/mL. The same compound came in with a clearance in data set [13] of 5.2 mL/min/kg. The bioavailability in [14] was 16%. Besides, the half-life in [15] is 15 h. Besides, the Tmax in data set [16] was determined as 2.7 h. The same compound displayed an AUC(0-t) at 32 h in data set [17] of 615 ng·h/mL. The Cmax in data set [18] is 116 ng/mL.

On to `CNC[C@H](CC1CCCCC1)NC(=O)N1CCC[C@@H]([C@@H](OCCNC(=O)OC)c2cccc(Cl)c2F)C1`, for which the IC50 at Renin [2] came out at 3.4 nM; at Renin [1] it was 0.61 nM.

With `COC(=O)NCCO[C@@H](c1cccc(F)c1)[C@@H]1CCCN(C(=O)N[C@H](CN)CC2CCCCC2)C1`, the IC50 was found to be 3.3 nM on Renin [2] and 0.58 nM on Renin [1].

As to `CCCC(=O)NCCC[C@@](O)(c1cccc(Cl)c1)[C@@H]1CCCN(C(=O)N[C@H](CNC)CC2CCCCC2)C1`, at Renin [1], the IC50 was 57 nM.

In the case of `CNC[C@H](CC1CCCCC1)NC(=O)N1CCC[C@@H]([C@@](O)(CCCNC(=O)NC)c2cccc(Cl)c2)C1`, the IC50 at Renin [2] was found to be 141 nM; on Renin [1], 46 nM.
